# Results from PMC3947597 (Bioorganic & medicinal chemistry, 2013).
# System: tubulin (colchicine site)
# Assay: Inhibition of [3H]colchicine binding to tubulin
# Settings: 1.0 µM tubulin, 5.0 µM [3H]colchicine, 10 min at 37 °C
structure (smiles),measurement,setting,value
"COc1ccc(/C=C\c2cc(OC)c(OC)c(OC)c2)cc1O [CA4, combretastatin A-4]","Inhibition of colchicine binding (%) ±SD, 1 µM",inhibitor 1 µM,88±2%
same,"Inhibition of colchicine binding (%) ±SD, 5 µM",inhibitor 5 µM,98±0.5%
